Experiment: ANCHOR: RBC fatty acid concentrations, ratios and class proportions (GC/FID)
Assay type: in vivo, human
Design: DHA RBC End-of-treatment / DHA RBC Change from baseline / DPAn-3 RBC End-of-treatment / DPAn-3 RBC Change from baseline / AA RBC End-of-treatment / AA RBC Change from baseline / Stearic RBC End-of-treatment / Stearic RBC Change from baseline / Oleic RBC End-of-treatment / Oleic RBC Change from baseline / Linoleic RBC End-of-treatment / Linoleic RBC Change from baseline: unit not given here
Conditions: for AA RBC Placebo-adjusted percent change from baseline / DHA RBC Placebo-adjusted percent change from baseline / DPAn-3 RBC Placebo-adjusted percent change from baseline / Linoleic RBC Placebo-adjusted percent change from baseline / Oleic RBC Placebo-adjusted percent change from baseline / Palmitic RBC Placebo-adjusted percent change from baseline / Ratio of AA/EPA RBC Placebo-adjusted percent change from baseline / Ratio of total ω-3/total ω-6 RBC Placebo-adjusted percent change from baseline / Stearic RBC Placebo-adjusted percent change from baseline: week 12, LS mean; for Monounsaturated, proportion of total fatty acids, RBCs, Change from baseline / Saturated, proportion of total fatty acids, RBCs, Change from baseline / Total ω-3, proportion of total fatty acids, RBCs, Change from baseline / Total ω-6, proportion of total fatty acids, RBCs, Change from baseline: LS mean (SE); for AA RBC End-of-treatment / DHA RBC End-of-treatment / DPAn-3 RBC End-of-treatment / Linoleic RBC End-of-treatment / Oleic RBC End-of-treatment / Palmitic RBC End-of-treatment / Ratio of AA/EPA RBC End-of-treatment / Ratio of total ω-3/total ω-6 RBC End-of-treatment / Stearic RBC End-of-treatment: week 12, mean; for Monounsaturated, proportion of total fatty acids, RBCs, End-of-treatment / Saturated, proportion of total fatty acids, RBCs, End-of-treatment / Total ω-3, proportion of total fatty acids, RBCs, End-of-treatment / Total ω-6, proportion of total fatty acids, RBCs, End-of-treatment: week 12, mean (SD)
Protocol: A multi-center, placebo-controlled, randomized, double-blind, 12-week study was performed to evaluate the efficacy and safety of >96% E-EPA in patients with fasting triglyceride levels≥200 mg/dl and <500 mg/dl despite statin therapy (the mean of two qualifying entry values needed to be ≥185 mg/dl and at least one of the values needed to be ≥200 mg/dl). The primary objective of the study was to determine the efficacy of >96% E-EPA 2 g daily and 4 g daily, compared to placebo, in lowering fasting TG levels in patients with high risk for cardiovascular disease and with fasting TG levels≥200 mg/dL and <500 mg/dL, despite treatment to LDL-C goal on statin therapy.
During the double-blind treatment period, patients were to take 2 capsules (>96% E-EPA or matching placebo) in the morning and 2 capsules in the evening for a total of 4 capsules per day. • Patients in the >96% E-EPA 2 g/day treatment group received 1>96% E-EPA 1 g capsule and 1 matching placebo capsule in the morning and in the evening. • Patients in the >96% E-EPA 4 g/day treatment group received 2>96% E-EPA 1 g capsules in the morning and evening. • Patients in the placebo group received 2 matching placebo capsules in the morning and evening.
Lipids were extracted from plasma and red blood cell (“RBC”) suspensions and converted into fatty acid methyl esters for analysis using a standard validated gas chromatography/flame ionization detection method. Fatty acid parameters were compared between EPA treatment groups and placebo using an ANCOVA model with treatment, gender, type of statin therapy, and presence of diabetes as factors, and the baseline parameter value as a covariate. LSMs, SEs, and 2-tailed 95% confidence intervals for each treatment group and for each comparison were determined.
The monounsaturated fatty acid group included myristoleic, palmitoleic, cis-vaccenic, oleic, gondoic/gadoleic, erucic and nervonic acids. The saturated fatty acid group included myristic, palmitic, stearic, arachidic, behenic and lignoceric acids. The “total ω-3” group included α-linolenic, stearidonic, eicosatrienoic, ω-3 arachidonic, eicosapentaenoic, ω-3 docosapentaenoic and docosahecaenoic acids. The “total ω-6” group included linoleic, γ-linolenic, eicosadienoic, dihomo-γ-linolenic, ω-6 arachidonic, adrenic, and ω-6 docosapentaenoic acids. The “total fatty acid” group represented the sum of the monounsaturated, saturated, total ω-3 and total ω-6 groups.

[1] = 2 g/day, baseline to week 12, LS mean (SE)
[2] = 4 g/day, baseline to week 12, LS mean

With CC/C=C\C/C=C\C/C=C\C/C=C\C/C=C\CCCC(=O)OCC [IPE, all-cis eicosa-5,8,11,14,17-pentaenoic acid ethyl ester] the “Monounsaturated, proportion of total fatty acids, RBCs, Placebo-adjusted percent change from baseline” value (2 g/day vs placebo) was −0.7%, the “Saturated, proportion of total fatty acids, RBCs, Placebo-adjusted percent change from baseline” value (2 g/day vs placebo) was 1.3% and the “Total ω-3, proportion of total fatty acids, RBCs, Placebo-adjusted percent change from baseline” value (2 g/day vs placebo) was 50.0%. The “Total ω-6, proportion of total fatty acids, RBCs, Placebo-adjusted percent change from baseline” value (2 g/day vs placebo) was −11.3%, the “AA RBC Placebo-adjusted percent change from baseline” value (2 g/day vs placebo) was −11.6% and the “DHA RBC Placebo-adjusted percent change from baseline” value (2 g/day vs placebo) was −5.4%. The “DPAn-3 RBC Placebo-adjusted percent change from baseline” value (2 g/day vs placebo) was 74.9%, the “Linoleic RBC Placebo-adjusted percent change from baseline” value (2 g/day vs placebo) was −2.1% and the “Oleic RBC Placebo-adjusted percent change from baseline” value (2 g/day vs placebo) was 1.6%. The “Palmitic RBC Placebo-adjusted percent change from baseline” value (2 g/day vs placebo) was 0.5%, the “Ratio of AA/EPA RBC Placebo-adjusted percent change from baseline” value (2 g/day vs placebo) was −87.1% and the “Ratio of total ω-3/total ω-6 RBC Placebo-adjusted percent change from baseline” value (2 g/day vs placebo) was 60.4%. The “Stearic RBC Placebo-adjusted percent change from baseline” value (2 g/day vs placebo) was 1.6%, the “Monounsaturated, proportion of total fatty acids, RBCs, Change from baseline” value (2 g/day) was −0.1 (0.2) mol % and the “Saturated, proportion of total fatty acids, RBCs, Change from baseline” value (2 g/day) was −0.3 (0.3) mol %. The “Total ω-3, proportion of total fatty acids, RBCs, Change from baseline” value (2 g/day) was 2.6 (0.2) mol %, the “Total ω-6, proportion of total fatty acids, RBCs, Change from baseline” value (2 g/day) was −2.4 (0.4) mol % and the “AA RBC Change from baseline” value [1] was −20.0 (3.3). For the same molecule, the “DHA RBC Change from baseline” value [1] was −5.5 (0.9), the “DPAn-3 RBC Change from baseline” value [1] was 21.2 (1.3) and the “Linoleic RBC Change from baseline” value [1] was −1.3 (3.5). For the same molecule, the “Oleic RBC Change from baseline” value [1] was 3.1 (2.8), the “Palmitic RBC Change from baseline” value [1] was 4.9 (4.1) and the “Ratio of AA/EPA RBC Change from baseline” value [1] was −21.9 (0.8). The “Ratio of total ω-3/total ω-6 RBC Change from baseline” value [1] was 0.1 (0.01), the “Stearic RBC Change from baseline” value [1] was 3.9 (2.3) and the “AA RBC End-of-treatment” value (2 g/day) was 173.0. The “DHA RBC End-of-treatment” value (2 g/day) was 44.7, the “DPAn-3 RBC End-of-treatment” value (2 g/day) was 52.2 and the “Linoleic RBC End-of-treatment” value (2 g/day) was 153.1. The “Oleic RBC End-of-treatment” value (2 g/day) was 204.7, the “Palmitic RBC End-of-treatment” value (2 g/day) was 321.1 and the “Ratio of AA/EPA RBC End-of-treatment” value (2 g/day) was 6.4. The “Ratio of total ω-3/total ω-6 RBC End-of-treatment” value (2 g/day) was 0.3, the “Stearic RBC End-of-treatment” value (2 g/day) was 178.7 and the “Monounsaturated, proportion of total fatty acids, RBCs, End-of-treatment” value (2 g/day) was 19.9 (1.1) mol %. The “Saturated, proportion of total fatty acids, RBCs, End-of-treatment” value (2 g/day) was 43.5 (2.1) mol %, the “Total ω-3, proportion of total fatty acids, RBCs, End-of-treatment” value (2 g/day) was 8.5 (1.5) mol % and the “Total ω-6, proportion of total fatty acids, RBCs, End-of-treatment” value (2 g/day) was 28.1 (2.1) mol %. For the same molecule, the “Monounsaturated, proportion of total fatty acids, RBCs, Placebo-adjusted percent change from baseline” value (4 g/day vs placebo) was −2.7%, the “Saturated, proportion of total fatty acids, RBCs, Placebo-adjusted percent change from baseline” value (4 g/day vs placebo) was 3.2% and the “Total ω-3, proportion of total fatty acids, RBCs, Placebo-adjusted percent change from baseline” value (4 g/day vs placebo) was 89.1%. For the same molecule, the “Total ω-6, proportion of total fatty acids, RBCs, Placebo-adjusted percent change from baseline” value (4 g/day vs placebo) was −19.7%, the “AA RBC Placebo-adjusted percent change from baseline” value (4 g/day vs placebo) was −20.3% and the “DHA RBC Placebo-adjusted percent change from baseline” value (4 g/day vs placebo) was −6.6%. For the same molecule, the “DPAn-3 RBC Placebo-adjusted percent change from baseline” value (4 g/day vs placebo) was 122.4%, the “Linoleic RBC Placebo-adjusted percent change from baseline” value (4 g/day vs placebo) was −11.1% and the “Oleic RBC Placebo-adjusted percent change from baseline” value (4 g/day vs placebo) was −3.7%. The “Palmitic RBC Placebo-adjusted percent change from baseline” value (4 g/day vs placebo) was −2.7%, the “Ratio of AA/EPA RBC Placebo-adjusted percent change from baseline” value (4 g/day vs placebo) was −98.5% and the “Ratio of total ω-3/total ω-6 RBC Placebo-adjusted percent change from baseline” value (4 g/day vs placebo) was 123.0%. For the same molecule, the “Stearic RBC Placebo-adjusted percent change from baseline” value (4 g/day vs placebo) was −1.3%, the “Monounsaturated, proportion of total fatty acids, RBCs, Change from baseline” value (4 g/day) was −0.5 (0.2) mol % and the “Saturated, proportion of total fatty acids, RBCs, Change from baseline” value (4 g/day) was 0.5 (0.3) mol %. The “Total ω-3, proportion of total fatty acids, RBCs, Change from baseline” value (4 g/day) was 4.9 (0.2) mol %, the “Total ω-6, proportion of total fatty acids, RBCs, Change from baseline” value (4 g/day) was −4.9 (0.4) mol % and the “AA RBC Change from baseline” value [2] was −37.5. For the same molecule, the “DHA RBC Change from baseline” value [2] was −6.4, the “DPAn-3 RBC Change from baseline” value [2] was 33.6 and the “Linoleic RBC Change from baseline” value [2] was −16.1. For the same molecule, the “Oleic RBC Change from baseline” value [2] was −8.0, the “Palmitic RBC Change from baseline” value [2] was −6.3 and the “Ratio of total ω-3/total ω-6 RBC Change from baseline” value [2] was 0.2. For the same molecule, the “Stearic RBC Change from baseline” value [2] was −1.4, the “AA RBC End-of-treatment” value (4 g/day) was 153.1 and the “DHA RBC End-of-treatment” value (4 g/day) was 39.0. The “DPAn-3 RBC End-of-treatment” value (4 g/day) was 61.9, the “Linoleic RBC End-of-treatment” value (4 g/day) was 132.7 and the “Oleic RBC End-of-treatment” value (4 g/day) was 188.8. For the same molecule, the “Palmitic RBC End-of-treatment” value (4 g/day) was 301.2, the “Ratio of AA/EPA RBC End-of-treatment” value (4 g/day) was 3.6 and the “Ratio of total ω-3/total ω-6 RBC End-of-treatment” value (4 g/day) was 0.4. For the same molecule, the “Stearic RBC End-of-treatment” value (4 g/day) was 170.5, the “Monounsaturated, proportion of total fatty acids, RBCs, End-of-treatment” value (4 g/day) was 19.8 (1.7) mol % and the “Saturated, proportion of total fatty acids, RBCs, End-of-treatment” value (4 g/day) was 44.2 (3.0) mol %. The “Total ω-3, proportion of total fatty acids, RBCs, End-of-treatment” value (4 g/day) was 10.2 (2.5) mol % and the “Total ω-6, proportion of total fatty acids, RBCs, End-of-treatment” value (4 g/day) was 25.8 (3.2) mol %.
